# US10662204B2 (PFIZER INC., priority 2018, dated 2020)
# Legend:
# KRAS G12C = KRAS G12C (Homo sapiens, UniProt P01116, G12C); experiment: Cell Activity Assay: accumulation of GDP-bound KRAS G12C in MIAPaCa-2 cells (Raf-1 RBD capture, MSD readout); format: cell-based; parameters: endogenous in cells; host or cells: MIAPaCa-2; conditions: 6 hours, assay limit is 30.00
# Method in brief: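 MIAPaCa-2 cells exposed 6 h at 37 °C to 3-fold compound dilutions (0.3% DMSO final), then lysed. Active GTP-KRAS captured on Raf-1 RBD-coated plates, detected with anti-pan-Ras and SULFO-TAG secondary by MSD electrochemiluminescence. Signal normalized to DMSO and maximum inhibition; IC50 from 4-parameter fit.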
# [1] = biological target: T1, GDP-loaded KRAS (1-169) G12C, C51S, C80L, C118S (Homo sapiens, UniProt P01116, C118S/C51S/C80L/G12C); experiment: Mass Spectrometry Reactivity Assay (MSRA): covalent adduct of compound and KRAS G12C, Percent Modification; format: binding; conditions: for MSRA (% modification) 10 μM 0.25 hr / MSRA (% modification) 10 μM 0.50 hr: 10 μM compound; for MSRA (% modification) 5.0 μM 0.017 hr / MSRA (% modification) 5.0 μM 0.25 hr: 5.0 μM compound
# T1 construct: GDP-loaded KRAS (1-169) G12C, C51S, C80L, C118S
# Method in brief: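 GDP-loaded KRAS(1-169) G12C/C51S/C80L/C118S at 5 μM in 25 mM Hepes pH 7.5, 200 mM NaCl, 5% glycerol incubated at RT with compound (typically 5 or 10 μM final, 1% DMSO). Quenched in formic acid at 1-60 min; intact-protein LC-TOF MS gives % modification = modified/(modified+unmodified).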
IC50 (KRAS G12C),MSRA (% modification) 10 μM 0.25 hr [1],MSRA (% modification) 10 μM 0.50 hr [1],MSRA (% modification) 5.0 μM 0.017 hr [1],MSRA (% modification) 5.0 μM 0.25 hr [1],SMILES
6.18 µM,15%,,,,"C=CC(=O)N1CCN(c2nc(OC[C@@H]3CC(F)(F)CN3C)nc3c(Oc4c(C)ccc5[nH]ncc45)nccc23)CC1 [Example 07B, 1-[4-(2-{[(2S)-4,4-difluoro-1-methylpyrrolidin-2-yl]methoxy}-8-[(5-methyl-1H-indazol-4-yl)oxy]pyrido[3,4-d]pyrimidin-4-yl)piperazin-1-yl]prop-2-en-1-one]"
0.393 µM,49%,,,,"C=CC(=O)N1CCN(c2nc(OC[C@@H]3CCCN3C)nc3c(Oc4c(Cl)c(F)cc5[nH]ncc45)nc(Cl)cc23)C[C@H]1C [Example 04G, 1-[(2R)-4-(6-chloro-8-[(5-chloro-6-fluoro-1H-indazol-4-yl)oxy]-2-{[(2S)-1-methylpyrrolidin-2-yl]methoxy}pyrido[3,4-d]pyrimidin-4-yl)-2-methylpiperazin-1-yl]prop-2-en-1-one]"
1.87 µM,,38%,,,"C=CC(=O)N1CCN(c2ncnc3c(Oc4c(C)ccc5[nH]ncc45)nc(Cl)cc23)CC1 [Example 09A, 1-(4-{6-chloro-8-[(5-methyl-1H-indazol-4-yl)oxy]pyrido[3,4-d]pyrimidin-4-yl}piperazin-1-yl)prop-2-en-1-one]"
0.075 µM,80%,,,,"C=CC(=O)N1CCN(c2nc(OC[C@@H]3C[C@H](F)CN3C)nc3c(Oc4c(Cl)c(F)cc5[nH]ncc45)nc(Cl)cc23)CC1 [Example 21G, 1-[4-(6-chloro-8-[(5-chloro-6-fluoro-1H-indazol-4-yl)oxy]-2-{[(2S,4S)-4-fluoro-1-methylpyrrolidin-2-yl]methoxy}pyrido[3,4-d]pyrimidin-4-yl)piperazin-1-yl]prop-2-en-1-one]"
0.038 µM,,,51%,,"C=CC(=O)N1CCN(c2nc(O[C@@H]3CN(C)C[C@H]3OC)nc3c(Oc4c(Cl)c(F)cc5[nH]ncc45)cccc23)CC1 [Example 01L, 1-[4-(8-[(5-chloro-6-fluoro-1H-indazol-4-yl)oxy]-2-{[(3R,4R)-4-methoxy-1-methylpyrrolidin-3-yl]oxy}quinazolin-4-yl)piperazin-1-yl]prop-2-en-1-one]"
11.7 µM,,25%,,,"C=CS(=O)(=O)N1CCN(c2ncnc3c(Oc4c(Cl)c(C)cc5[nH]ncc45)nccc23)CC1 [Example 04, 8-[(5-chloro-6-methyl-1H-indazol-4-yl)oxy]-4-[4-(ethenylsulfonyl)piperazin-1-yl]pyrido[3,4-d]pyrimidine]"
0.031 µM,,,39%,,"C=CC(=O)N1CCN(c2nc(O[C@@H]3CN(C)C[C@H]3C)nc3c(Oc4c(Cl)c(Cl)cc5[nH]ncc45)nccc23)CC1 (racemic) [Example 51I, rac-1-[4-(8-[(5,6-dichloro-1H-indazol-4-yl)oxy]-2-{[(3S,4R)-1,4-dimethyl-pyrrolidin-3-yl]oxy}pyrido [3,4-d]pyrimidin-4-yl)piperazin-1-yl]prop-2-en-1-one]"
0.126 µM,,,,81%,"C=CC(=O)N1CCN(c2nc(OC[C@@]3(F)CCCN(C)C3)nc3c(Oc4c(Cl)c(F)cc5[nH]ncc45)nccc23)CC1 [Example 15I, 1-[4-(8-[(5-chloro-6-fluoro-1H-indazol-4-yl)oxy]-2-{[(3R)-3-fluoro-1-methyl-piperidin-3-yl]methoxy}pyrido [3,4-d]pyrimidin-4-yl)piperazin-1-yl]prop-2-en-1-one]"
> 30 µM,,15%,,,"C=CC(=O)N1CCN(c2ncnc3c(Oc4c(C)cccc4Cl)nccc23)CC1 [Example 03, 1-{4-[8-(2-Chloro-6-methylphenoxy)pyrido[3,4-d]pyrimidin-4-yl]piperazin-1-yl}prop-2-en-1-one]"
0.032 µM,,,56%,,"C#CCCN1C[C@@H](OC)[C@H](Oc2nc(N3CCN(C(=O)C=C)CC3)c3ccnc(Oc4c(Cl)c(F)cc5[nH]ncc45)c3n2)C1 [Example 44I, 1-[4-(2-{[(3R,4R)-1-(but-3-yn-1-yl)-4-methoxy-pyrrolidin-3-yl]oxy}-8-[(5-chloro-6-fluoro-1H-indazol-4-yl)oxy]pyrido [3,4-d]pyrimidin-4-yl)piperazin-1-yl]prop-2-en-1-one]"
0.006 µM,,,67%,,"C=CC(=O)N1CCN(c2nc(Oc3cccc4c3CCN(C)C4)nc3c(Oc4c(Cl)ccc5[nH]ncc45)nccc23)CC1 [Example 48I, 1-(4-{8-[(5-chloro-1H-indazol-4-yl)oxy]-2-[(2-methyl-1,2,3,4-tetrahydro-isoquinolin-5-yl)oxy]pyrido [3,4-d]pyrimidin-4-yl}piperazin-1-yl)prop-2-en-1-one]"
8.89 µM,,17%,,,"C=CC(=O)N1CCN(c2ncnc3c(Oc4c(Cl)c(F)cc5[nH]ncc45)nccc23)C[C@H]1C [Example 25A, 1-[(2R)-4-{8-[(5-chloro-6-fluoro-1H-indazol-4-yl)oxy]pyrido[3,4-d]pyrimidin-4-yl}-2-methylpiperazin-1-yl]prop-2-en-1-one]"
10.7 µM,,25%,,,C=CC(=O)N1CCN(c2nc(N3CC[C@H](N(C)C)C3)nc3c(Oc4c(C)ccc5[nH]ncc45)cccc23)CC1 [Example 08E]
0.398 µM,,,,44%,"C=CC(=O)N1CCN(c2nc(Oc3cnn(C)c3)nc3c(Oc4c(Cl)c(F)cc5[nH]ncc45)nccc23)CC1 [Example 09I, 1-(4-{8-[(5-chloro-6-fluoro-1H-indazol-4-yl)oxy]-2-[(1-methyl-1H-pyrazol-4-yl)oxy]pyrido [3,4-d]pyrimidin-4-yl}piperazin-1-yl)prop-2-en-1-one]"
0.01 µM,,,73%,,"C=CC(=O)N1CCN(c2nc(Oc3cccc4c3CN(C)CC4)nc3c(Oc4c(Cl)c(F)cc5[nH]ncc45)nccc23)CC1 [Example 42I, 1-(4-{8-[(5-chloro-6-fluoro-1H-indazol-4-yl)oxy]-2-[(2-methyl-1,2,3,4-tetrahydro-isoquinolin-8-yl)oxy]pyrido [3,4-d]pyrimidin-4-yl}piperazin-1-yl)prop-2-en-1-one]"
1.6 µM,58%,72%,,,"C=CC(=O)N1CCN(c2nc(O[C@H]3Cc4nccn4C3)nc3c(Oc4c(C)ccc5[nH]ncc45)cccc23)CC1 [Example 08F, 1-(4-{2-[(6S)-6,7-dihydro-5H-pyrrolo[1,2-a]imidazol-6-yloxy]-8-[(5-methyl-1H-indazol-4-yl)oxy]quinazolin-4-yl}piperazin-1-yl)prop-2-en-1-one]"
0.007 µM,,,83%,,"[2H]C([2H])([2H])N1C[C@@H](OC)[C@H](Oc2nc(N3CCN(C(=O)C=C)CC3)c3cc(Cl)nc(Oc4c(Cl)c(F)cc5[nH]ncc45)c3n2)C1 [Example 41G, 1-[4-(6-chloro-8-[(5-chloro-6-fluoro-1H-indazol-4-yl)oxy]-2-{[(3R,4R)-4-methoxy-1-(^2H3)methylpyrrolidin-3-yl]oxy}pyrido[3,4-d]pyrimidin-4-yl)piperazin-1-yl]prop-2-en-1-one]"
0.026 µM,,,53%,,"C=CC(=O)N1CCN(c2nc(O[C@@H]3COC[C@H]3N(C)C)nc3c(Oc4c(Cl)c(F)cc5[nH]ncc45)nc(Cl)cc23)CC1 (racemic) [Example 30G, rac-1-[4-(6-chloro-8-[(5-chloro-6-fluoro-1H-indazol-4-yl)oxy]-2-{[(3S,4R)-4-(dimethylamino)oxolan-3-yl]oxy}pyrido[3,4-d]pyrimidin-4-yl)piperazin-1-yl]prop-2-en-1-one]"
0.109 µM,,,35%,,"C=CC(=O)N1CCN(c2nc(OC3CN(C)CC34CC4)nc3c(Oc4c(Cl)c(F)cc5[nH]ncc45)nc(Cl)cc23)CC1 (stereo not drawn) [Example 36G, 1-(4-{6-chloro-8-[(5-chloro-6-fluoro-1H-indazol-4-yl)oxy]-2-[(5-methyl-5-azaspiro[2.4]heptan-7-yl)oxy]pyrido[3,4-d]pyrimidin-4-yl}piperazin-1-yl)prop-2-en-1-one]"
0.155 µM,,,24%,,"C=CC(=O)N1CCN(c2nc(O[C@@H]3CN(C)C[C@H]3OC)nc3c(Oc4c(Cl)c(F)cc5[nH]ncc45)nccc23)C[C@H]1C [Example 35I, 1-[(2R)-4-(8-[(5-chloro-6-fluoro-1H-indazol-4-yl)oxy]-2-{[(3R,4R)-4-methoxy-1-methyl-pyrrolidin-3-yl]oxy}pyrido [3,4-d]pyrimidin-4-yl)-2-methyl-piperazin-1-yl]prop-2-en-1-one]"
0.989 µM,,,,64%,"C=CC(=O)N1CCN(c2nc(OC[C@H]3CCCN3C(C)=O)nc3c(Oc4c(Cl)c(F)cc5[nH]ncc45)nccc23)CC1 [Example 04J, 1-[4-(2-{[(2R)-1-acetylpyrrolidin-2-yl]methoxy}-8-[(5-chloro-6-fluoro-1H-indazol-4-yl)oxy]pyrido[3,4-d]pyrimidin-4-yl)piperazin-1-yl]prop-2-en-1-one]"
0.155 µM,72%,,,,"C=CC(=O)N1CCN(c2nc(OC[C@@H]3CCCN3C)nc3c(Oc4c(C)ccc5[nH]ncc45)nc(Cl)cc23)CC1 [Example 03G, 1-[4-(6-chloro-8-[(5-methyl-1H-indazol-4-yl)oxy]-2-{[(2S)-1-methylpyrrolidin-2-yl]methoxy}pyrido[3,4-d]pyrimidin-4-yl)piperazin-1-yl]prop-2-en-1-one]"
